Data taken from publication PMC8049364, “Quantification of Macrophage-Driven Inflammation During Myocardial Infarction with ^18F-LW223, a Novel TSPO Radiotracer with Binding Independent of the rs6971 Human Polymorphism” (Journal of Nuclear Medicine, 2021).

Columns and labels:
TSPO [1] = target: T1, TSPO (Homo sapiens, UniProt P30536); assay: In vitro competition binding assay with ^3H-PK11195 in human brain homogenates (HAB, MAB, LAB); conditions: for LAB/HAB ratio: human brain homogenates, rs6971 genotyped
T1 sequence (P30536 2-169): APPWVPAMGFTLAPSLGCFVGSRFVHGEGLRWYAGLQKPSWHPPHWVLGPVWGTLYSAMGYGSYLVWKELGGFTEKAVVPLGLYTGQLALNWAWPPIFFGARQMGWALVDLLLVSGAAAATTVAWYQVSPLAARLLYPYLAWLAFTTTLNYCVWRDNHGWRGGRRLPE
Experimental: (§1) All studies using human tissue were conducted in accordance with the National Health Service Research Ethics Committee South East Scotland (Edinburgh Brain and Tissue Bank, 16/ES/0084). Supplemental Table 1 contains the Brain Bank Network reference number for all tissues used from the Edinburgh Brain and Tissue Bank. […] Samples were homogenized in ×10 w/v buffer (50 mM Tris-Base, pH 7.4, 4°C) before centrifugation (32,000g, 10 min, 4°C). Tissue pellets were then resuspended in ×10 w/v buffer and centrifuged again before resuspending in 2 mL of buffer. Samples were assessed for protein concentration using the Bio-Rad protein assay, aliquoted, and stored at −80°C until use. The competition binding assay protocol was adjusted from a previously reported protocol ([16]), as detailed within the supplemental materials.
(§2) In Vitro Human Competition Binding Assays
(§3) Briefly, 250 µg protein/mL in 200 µl of buffer was added to 100 µl of 1 nM 3H- […]
(§4) Aldrich, USA), PBR28 (ABX, Germany), AB5186 or LW223 at 14 different concentrations (0.001-3000 nM) for 90 min at 4 °C. Binding was terminated with the addition of ice cold buffer before being immediately filtered over a Whatman GF/B filters (Whatman, UK) pre-treated with 0.3% polyethylenimine (Sigma-Aldrich, USA) using a Brandel harvester (Brandel, USA). Filter paper was then removed, placed into 2.5 mL of Optiphase HiSafe 3 (Perkin Elmer, USA) and counted 48 hours later on a Hidex 300 SL (Hidex, Finland).
(§5) All binding assays were performed
(§6) GraphPad Prism version 6 (GraphPad Software, USA) was used to fit all binding affinity curves. A comparison of a one-site and two-site models was made using the least squares algorithm and model selection was compared using an F test. The null hypothesis (one-site fitting as more suitable) was rejected if p<0.05. Normalized mean […]
(§7) saturation binding results, Sup.Fig.2) was used to determine the best fitting model and to calculate LAB:HAB ratios. Affinity values (Ki) were calculated by fitting individual tissue

TSPO [2] = assay: In vitro competition binding assay with ^3H-PK11195 in human heart homogenates (HAB, MAB, LAB); conditions: for Effect of rs6971 genetic polymorphism on Ki: human heart; for LAB/HAB ratio: human heart homogenates, rs6971 genotyped
Experimental: as §1, §2, §3, §4, §5, §6, §7

TSPO [3] = target: T1, TSPO; assay: as above; conditions: human heart
Experimental: as §1, §2, §3, §4, §5, §6, §7

TSPO [4] = conditions: cited from earlier work
[5] = humans; cited from earlier work
[6] = cited from earlier work
TSPO [7] = conditions: humans; cited from earlier work

Structure (SMILES)	LAB/HAB ratio (TSPO [1])	Effect of rs6971 genetic polymorphism on Ki (TSPO [2])	LAB/HAB ratio (TSPO [2])	VT in the brain (TSPO [4])	other results
CCN(CC)C(=O)c1nc2ccccc2c(-c2ccccc2)c1CF [AB5186]	9	affected	7		Effect of rs6971 genetic polymorphism on Ki (TSPO [1]; human brain): affected
CC[C@@H](C)N(C)C(=O)c1nc2ccccc2c(-c2ccccc2)c1CF [LW223]	1	unaffected	1		Effect of rs6971 genetic polymorphism on Ki (TSPO [1]; human brain): unaffected; Ki (TSPO [1]; human brain): 0.6 nM; Ki (TSPO [3]): 1.7 nM
COc1ccccc1CN(C(C)=O)c1cnccc1Oc1ccccc1 [PBR28, reference compound]	48	affected	48		
CC[C@@H](C)N([11CH3])C(=O)c1nc(-c2ccccc2Cl)c2ccccc2n1 [^11C-ER176]				1.6–3.5 mL/cm^3	parent free fraction in plasma [5]: 3.3%
CCC(C)N([11CH3])C(=O)c1cc2ccccc2c(-c2ccccc2Cl)n1 (centres unmarked) [^11C-PK11195]				0.6–0.74 mL/cm^3	parent free fraction in plasma [5]: 1%; parent in plasma ([6]; same lower species (rat)): ~40%; SUVpeak, heart (TSPO [7]): 5; SUVpeak, lung (TSPO [7]): 3
CN(C(=O)Cn1c(=O)oc2ccc(-c3ccc(OCC[18F])cc3)cc21)c1ccccc1 [^18F-FEBMP]					original parent compound found in blood ([6]; rats, 30 min after injection): less than 10%
CCN(CC)C(=O)[C@H]1CCCc2c1c1c(OC)cccc1n2CC[18F] [^18F-GE180, Flutriciclamide]				0.10–0.28 mL/cm^3	
CCN(CC)C(=O)Cc1c(-c2ccc(OCCC[18F])cc2)nc2ccc(Cl)cn12 [^18F-PBR111]				2.22–4.03 mL/cm^3	
